Measurements published in patent publication US11464770B2, “Anticancer pharmaceutical composition” (NATIONAL CANCER CENTER, priority 2016, dated 2022).
Read-outs that look alike come from different tables or passages of the source.

Tests used:
[1] = tested on: UM-UC-3: human urinary bladder transitional cell carcinoma; experiment: Cell based assay, cytotoxicity in UM-UC-3 cells; details: UMUC3, 72 hours
Description: (§1) Commercially available bladder cancer, prostate cancer, lung cancer, breast cancer, blood cancer, pancreatic cancer, colorectal cancer, brain cancer, neuroblastoma, melanoma, liver cancer, cervical carcinoma, ovarian cancer, renal cancer, and papilloma cell lines were each treated with trypsin-EDTA and cultured, followed by being seeded in each well of a 96 well plate. After 24 hours of treatment at constant temperature, the respective cells were treated with the candidate compound so that a final concentration became 0 to 2 μM. The treated cells were additionally cultured for 72 hours, and cell viability was measured by using an ATP detection method (CellTiter-Glo® Luminescent Cell Viability Assay, Promega).

[2] = Cell based assay, cytotoxicity in RT4 papilloma cells (selectivity); design: species or system human; details: human; RT4 cells (benign), 72 hours
[3] = tested on: human prostate cancer cell line (DU145); experiment: Tumor growth inhibition in animal model using DU145; type: in vivo; details: intraperitoneally administered twice a week, DU145 animal model (FIG. 2)
[4] = tested on: pancreatic cancer cell lines (e.g. MIA PaCa-2); experiment: Cell based assay, cell viability (CellTiter-Glo), pancreatic cancer cell lines; details: Homo sapiens
Summary of the method: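 72-hour continuous compound exposure, 0 to 2 μM final, begun one day after seeding; endpoint is ATP-based luminescent viability.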

[5] = tested on: human lung cancer cell line (NCI-H1299); experiment: Tumor growth inhibition in animal model using NCI-H1299; type: in vivo; details: intraperitoneally administered three times a week, NCI-H1299 animal model (FIG. 1)
[6] = tested on: MBT-2: Mouse bladder transitional cell carcinoma; experiment: Cell based assay, cytotoxicity in MBT-2 cells; details: 72 hours
Description: as §1

[7] = tested on: KU-19-19: Bladder carcinoma; experiment: Cell based assay, cytotoxicity in KU19-19 cells; details: Homo sapiens, 72 hours
Description: as §1

IC50 ([4]; pancreatic cancer cell line AsPC-1, 72 hours, read-out: IC50, AsPC-1): > 2 µM
IC50 ([4]; pancreatic cancer cell line BxPC-3, 72 hours, read-out: IC50, BxPC-3): > 2 µM
IC50 ([4]; pancreatic cancer cell line CFPAC-1, 72 hours, read-out: IC50, CFPAC-1): > 10 µM
IC50 ([4]; pancreatic cancer cell line Capan-1, 72 hours, read-out: IC50, Capan-1): > 2 µM
IC50 ([4]; pancreatic cancer cell line Capan-2, 72 hours, read-out: IC50, Capan-2): > 2 µM
IC50 ([4]; pancreatic cancer cell line MIA PaCa-2, 72 hours, read-out: IC50, MIA PaCa-2): 1.37 µM
IC50 ([4]; pancreatic cancer cell line PANC-1, 72 hours, read-out: IC50, PANC-1): > 2 µM
SMILES: CC(=O)c1c([S+]([O-])Cc2ccc(SC(F)(F)F)cc2)[nH]c2c(Br)ccc(Cl)c2c1=O (stereo not shown) [Compound 56, 3-acetyl-8-bromo-5-chloro-2-((4-((trifluoromethyl)thio)benzyl)sulfinyl)quinolin-4(1H)-one]
IC50 [1]: 1.25 µM
IC50 at 72 h [2]: > 10 µM
Effect of inhibiting tumor growth [3]: effect of inhibiting tumor growth
Effect of inhibiting tumor growth [5]: effect of inhibiting tumor growth
IC50 [6]: 1.18 µM
IC50 [7]: 0.9 µM
